Target: T1, P-glycoprotein
T1 construct: plasma membrane vesicles from EHR2/DNR+ Ehrlich ascites tumour cells
Assay: inhibition of 3H-vincristine binding to plasma membrane vesicles, rapid filtration
Type: biochemical

## CN1CCN(CCCN2c3ccccc3Sc3ccc(C(F)(F)F)cc32)CC1 [TFP, trifluoperazine]
  IC50: 23.2 µM

— publication PMC2247270, “Inhibition of vincristine binding to plasma membrane vesicles from daunorubicin-resistant Ehrlich ascites cells by multidrug resistance modulators” (British Journal of Cancer, 1989)
